The text below walks through data of patent publication US20260098019A1, “SYNTHESIS OF NSAID CONJUGATES AS ANTI-INFLAMMATORY AGENTS USING THE MOLECULAR HYBRIDIZATION” (AUGUSTA UNIVERSITY RESEARCH INSTITUTE, INC., priority 2022, published 2026).

Marks after values point to notes of the source that are not given here.

Data set [1] has as its system acetic acid-induced writhing. Briefly: acetic acid-induced writhing test (peripheral analgesic). The following applies: for 1/(observed property): 1/(% inhibition) peripheral analgesic; for Observed property: % inhibition/protection peripheral analgesic; for % Inhibition/protection: vs control; for % Inhibition/protection / Writing reflex ± SE: 10 mg/kg indomethacin mol equivalent i.p.; for Potency: % inhibition/protection compared to indomethacin; for Writing reflex ± SE: number of writhing counted for 30 min. It counts as in vivo, albino mice. How it is done: Peripheral analgesic activity was measured by the standard acetic acid-induced writhing test in mice. […] One hour after the i.p. administration, each mouse was injected with 0.1 ml of 1% acetic acid solution i.p. The control group animals were given sterile/distilled water with few drops of Tween 80. Starting 5 min after the acetic acid injection, the number of muscular contractions in each mouse was counted for 30 min. A significant reduction in the number of writhing by a conjugate compared with control animals was considered as a positive analgesic response. Percentage protection was calculated according to equ. (3), where n is the average number of writhing in the control group and n′ is the average number of writhing in the treated group. The % potency was calculated by equ. (4) (Table 2).

The test system of a further data set is hot plate latency. Briefly: hot plate test (central analgesic). It counts as in vivo, albino mice. To be noted: for Observed property: % Protection central analgesic (120 min); for Latency period ± SE: 10 mg/kg indomethacin mol equivalent i.p., cutoff 15 seconds; for % Protection: vs control; for Potency: at 120 min. compared to indomethacin. How it is done: An in vivo standard hot plate test was performed. […] The control group animals were given sterile/distilled water with few drops of Tween 80. The maximum cutoff time was 15 seconds to prevent tissue damage. Response latencies were measured at 30, 60, 90 and 120 inns. The % protection was calculated by equ. (5), where, Ti, To are the latency time mean of the tested compound and control group respectively (Table 3).

Another data set has as its target COX-1 (UniProt P05979). Type of data set: biochemical, human. The following applies: ± SD. The text has this:
Rev. […] Thromb. Vasc. […] Rev. […] Rev. […] Rev. Oncol. Hematol. […] Curr. Pharm. Des. […] Luong, et al., Nat. Struct. […] A. and Marnett, L. J., Chem. Rev. […] Drug Discov. […] Biomol.

The subject of another data set is gastric mucosa. Briefly: ulcerogenic liability. To be noted: for % Incidence of ulcer divided by 10 / Average of ulcer number / Average severity of ulcer / Number of animals with ulcer: three successive days, 10 mg/kg indomethacin mol equivalent; for Number of animals with ulcer: 6 animals.

COX-1, sequence (P05979 whole entry): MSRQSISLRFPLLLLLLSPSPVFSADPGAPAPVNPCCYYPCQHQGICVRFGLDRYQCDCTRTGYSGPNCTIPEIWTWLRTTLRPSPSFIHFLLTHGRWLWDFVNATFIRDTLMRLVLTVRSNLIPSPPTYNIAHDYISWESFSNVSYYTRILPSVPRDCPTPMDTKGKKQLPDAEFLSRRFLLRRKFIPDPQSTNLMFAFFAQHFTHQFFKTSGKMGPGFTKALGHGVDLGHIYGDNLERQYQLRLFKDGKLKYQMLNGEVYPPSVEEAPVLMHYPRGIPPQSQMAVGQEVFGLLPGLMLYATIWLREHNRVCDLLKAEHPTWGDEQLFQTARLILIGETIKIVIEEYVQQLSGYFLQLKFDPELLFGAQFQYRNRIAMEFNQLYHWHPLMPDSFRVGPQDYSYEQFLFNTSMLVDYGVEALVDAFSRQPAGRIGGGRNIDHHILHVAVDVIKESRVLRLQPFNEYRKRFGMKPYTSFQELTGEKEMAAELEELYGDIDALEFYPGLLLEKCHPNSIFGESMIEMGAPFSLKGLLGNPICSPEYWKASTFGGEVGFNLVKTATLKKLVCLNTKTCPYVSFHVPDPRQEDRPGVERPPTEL
Experimental for gastric mucosa: The ulcerogenic liability of conjugates was determined in albino mice following a standard method. Animals of either sex (pregnant females were excluded) weighing 20-25 g were divided into 8 groups of 6 animals each. The animals fasted 18 h before drug administration. […] The control group animals were given water with a few drops of Tween 80. The animals were sacrificed by cervical dislocation and the stomach was removed, opened along the greater curvature, and rinsed with saline. The gastric mucosa was examined with a magnifying lens (10×) for the presence of lesions and erosions. The ulcer index was calculated (Table 4) and the degree of ulcerogenic effect was expressed in terms of: (1) the percentage incidence of ulcers divided by 10; (2) average number of ulcers per stomach; and (3) average severity of ulcers. The ulcer index is the value that resulted from the sum of the above three values.

Regarding `CC(C)Cc1ccc(C(C)C(=O)OCc2cn(-c3ccccc3Cl)nn2)cc1` (stereo not drawn) [Compound 5a, (1-(2-Chlorophenyl)-1H-1,2,3-triazol-4-yl)methyl 2-(4-isobutylphenyl)propanoate], in data set [1], the “1/(observed property)” value was found to be 0.01201, the Observed property worked out at 83.3 and the “% Inhibition/protection” value worked out at 83.3%. In the data set on hot plate latency, this molecule gave an Observed property of 54.5. Moreover, on COX-1, the IC50 is 17.2 ± 0.41 µM. The “ulcers or erosions to the gastric / ulcerogenic liability (in words)” value with gastric mucosa (mice, oral) is “none and No ulcerogenic liability”. In addition, in the data set with gastric mucosa (oral), the “% Incidence of ulcer divided by 10” value is 0, the “Average of ulcer number” value amounted to 0, the “Average severity of ulcer” value is recorded as 0 and the “Number of animals with ulcer” value amounted to 0. The molecule further showed a Ulcer index with gastric mucosa (sum of the three values) of 0.

Consider `CC(C)Cc1ccc(C(C)C(=O)OCc2cn(-c3ccc(F)cc3)nn2)cc1` (stereo not drawn) [Compound 5c, (1-(4-Fluorophenyl)-1H-1,2,3-triazol-4-yl)methyl 2-(4-isobutylphenyl)propanoate], for which, in data set [1], the “1/(observed property)” value was 0.01201. Besides, the Observed property in data set [1] came to 83.3; with hot plate latency, 18. Further, the “% protection compared with parent compound ibuprofen” value in the data set on hot plate latency (at 30 min) turned out to be 1.8 folds.

Regarding `COc1ccc(-n2cc(COC(=O)C(C)c3ccc(CC(C)C)cc3)nn2)cc1` (stereo not drawn) [Compound 5f, (1-(4-Methoxyphenyl)-1H-1,2,3-triazol-4-yl)methyl 2-(4-isobutylphenyl)propanoate], in data set [1], the “1/(observed property)” value is given as 0.0125 and the Observed property stood at 80.0. The Observed property with hot plate latency came out at 0.2.

With `CC(C)Cc1ccc(C(C)C(=O)OCc2cn(-c3ccc([N+](=O)[O-])cc3)nn2)cc1` (stereo not drawn) [Compound 5g, (1-(4-Nitrophenyl)-1H-1,2,3-triazol-4-yl)methyl 2-(4-isobutylphenyl)propanoate], the “1/(observed property)” value in data set [1] was 0.01538. Besides, the Observed property in data set [1] amounted to 65.0; in the data set with hot plate latency, 28.1.

With `C#CCOC(=O)Cc1c(C)n(C(=O)c2ccc(Cl)cc2)c2ccc(OC)cc12` [Compound 7, prop-2-yn-1-yl 2-(1-(4-chlorobenzoyl)-5-methoxy-2-methyl-1H-indol-3-yl) acetate], the figures for the Potency (in data set [1]; with hot plate latency) were 124.4% and 34.7%, respectively. Moreover, in data set [1], the “Writing reflex ± SE” value is 4.3 ± 0.5. In addition, the “% Inhibition/protection” value in data set [1] was determined as 89.3%. Also, the “Latency period ± SE” value in the data set with hot plate latency (After 30 min.) was 6.68 s; in the data set with hot plate latency (After 60 min.), 9.54 ± 1.6 s; in the data set on hot plate latency (After 90 min.) it was 11.18 ± 1.5 s; with hot plate latency (After 120 min.), 10.78 ± 1.8 s. Also, the “% Protection” value with hot plate latency (After 30 min.) is reported as 2.0* (0.0) %; in the data set with hot plate latency (After 60 min.) it was “(31.2) %”; in the data set with hot plate latency (After 90 min.) it was “(25.5) %”; in the data set with hot plate latency (After 120 min.), “(19.6) %”.

With `COc1ccc2c(c1)c(CC(=O)OCc1cn(-c3ccccc3Cl)nn1)c(C)n2C(=O)c1ccc(Cl)cc1` [Compound 8a, (1-(2-Chlorophenyl)-1H-1,2,3-triazol-4-yl)methyl 2-(1-(4-chlorobenzoyl)-5-methoxy-2-methyl-H-indol-3-yl)acetate], in data set [1], the “1/(observed property)” value was 0.02028, the Potency is 68.7%, the Observed property is recorded as 49.3 and the “Writing reflex ± SE” value was found to be 20.3 ± 1.8. Further, the “% Inhibition/protection” value in data set [1] came out at 49.3%. In the data set with hot plate latency, this molecule registered an Observed property of 51.3 and a Potency of 90.8%. In the data set with hot plate latency (After 30 min.), the “Latency period ± SE” value stood at 12.19 s and the “% Protection” value is reported as “(82.5) %”. Also, in the data set with hot plate latency (After 60 min.), the “Latency period ± SE” value was determined as 13.51 s and the “% Protection” value was 1.7** (85.8) %. In the data set on hot plate latency (After 90 min.), the “Latency period ± SE” value is 13.85 ± 1.4 s and the “% Protection” value is “(55.4) %”. Further, in the data set on hot plate latency (After 120 min.), the “Latency period ± SE” value amounted to 13.63 ± 1.3 s and the “% Protection” value is listed as “(51.3) %”.

Take `COc1ccc2c(c1)c(CC(=O)OCc1cn(-c3ccc(Cl)cc3)nn1)c(C)n2C(=O)c1ccc(Cl)cc1` [Compound 8b, (1-(4-Chlorophenyl)-1H-1,2,3-triazol-4-yl)methyl 2-(1-(4-chlorobenzoyl)-5-methoxy-2-methyl-1H-indol-3-yl)acetate]: the “1/(observed property)” value in data set [1] came to 0.0216. Further, the Observed property in data set [1] is 46.3; in the data set with hot plate latency, 9.7.

For the molecule `COc1ccc2c(c1)c(CC(=O)OCc1cn(-c3ccc(F)cc3)nn1)c(C)n2C(=O)c1ccc(Cl)cc1` [Compound 8c, (1-(4-Fluorophenyl)-1H-1,2,3-triazol-4-yl)methyl 2-(1-(4-chlorobenzoyl)-5-methoxy-2-methyl-1H-indol-3-yl)acetate], the “1/(observed property)” value in data set [1] amounted to 0.02421. Also, the values for the Observed property (in data set [1]; with hot plate latency) were 41.3 and 48.1, respectively.

In the case of `COc1ccc2c(c1)c(CC(=O)OCc1cn(-c3ccc(C)cc3)nn1)c(C)n2C(=O)c1ccc(Cl)cc1` [Compound 8d, (1-(p-Tolyl)-1H-1,2,3-triazol-4-yl)methyl 2-(1-(4-chlorobenzoyl)-5-methoxy-2-methyl-1H-indol-3-yl)acetate], in data set [1], the “1/(observed property)” value was determined as 0.016 and the Observed property came out at 62.5. The molecule further returned an Observed property in the data set with hot plate latency of 48.6.

On to `COc1ccc2c(c1)c(CC(=O)OCc1cn(-c3ccccc3OC)nn1)c(C)n2C(=O)c1ccc(Cl)cc1` [Compound 8e, (1-(2-Methoxyphenyl)-1H-1,2,3-triazol-4-yl)methyl 2-(1-(4-chlorobenzoyl)-5-methoxy-2-methyl-1H-indol-3-yl)acetate], for which, in data set [1], the “1/(observed property)” value came out at 0.01238 and the Observed property is given as 80.8. The same molecule yielded an Observed property with hot plate latency of 28.9.

`COc1ccc(-n2cc(COC(=O)Cc3c(C)n(C(=O)c4ccc(Cl)cc4)c4ccc(OC)cc34)nn2)cc1` [Compound 8f, (1-(4-Methoxyphenyl)-1H-1,2,3-triazol-4-yl)methyl 2-(1-(4-chlorobenzoyl)-5-methoxy-2-methyl-1H-indol-3-yl)acetate]: in data set [1], the “1/(observed property)” value is 0.01497 and the Observed property was found to be 66.8. In the data set with hot plate latency, this molecule yielded an Observed property of 66.5.

On to `COc1ccc2c(c1)c(CC(=O)OCc1cn(-c3ccc([N+](=O)[O-])cc3)nn1)c(C)n2C(=O)c1ccc(Cl)cc1` [Compound 8g, (1-(4-Nitrophenyl)-1H-1,2,3-triazol-4-yl)methyl 2-(1-(4-chlorobenzoyl)-5-methoxy-2-methyl-1H-indol-3-yl)acetate], for which, in data set [1], the “1/(observed property)” value stood at 0.01038 and the Observed property was 96.3. The molecule further yielded an Observed property in the data set with hot plate latency of 2.7.

Consider `CC(C)Cc1ccc(C(C)C(=O)O)cc1` (stereo not drawn) [Ibu, 2-(4-isobutylphenyl)propanoic acid, reference compound], for which, in data set [1], the Potency was 81.5% and the “% Inhibition/protection” value is 58.5%. Also, in the data set on hot plate latency (After 30 min.), the “% Protection” value is “(61.7) %”. Besides, the “% Protection” value with hot plate latency (After 120 min.) is listed as “(54.3) %”. In the data set on hot plate latency, this molecule displayed a Potency of 96.1%. Also, in the data set with gastric mucosa (oral), the “% Incidence of ulcer divided by 10” value is 3.33, the “Average of ulcer number” value worked out at 0.33, the “Average severity of ulcer” value amounted to 0.67 and the “Number of animals with ulcer” value is 2/6.
